Results reported in PubChem BioAssay AID1996.
In brackets after ≈: the same amount, converted by molar mass.

conditions: buffer; pH 7.4; 200.0 µM

First: Cc1cnc(SCc2cnc(C)nc2N)nc1
Second: CC(C)(C)S(=O)(=O)c1cnc(-c2ccc(Cl)cc2)nc1N
The solubility kinetic of the first is higher: > 37.1 µg/mL for the first, < 0.2 µg/mL for the second.

Compared with `COc1ccc(NC(=O)Cn2cc(C(C)=O)c3ccccc32)cc1`, `COc1ccc(NC(=O)CCC(=O)N/N=C/c2cccnc2)cc1` is higher in solubility kinetic: 0.5 µg/mL (≈ 1.55 µM) for the first, > 49 µg/mL for the second.

Compared with `COCCn1c(N)c(C(=S)NC(=O)c2cccs2)c(=O)[nH]c1=O`, `CCOC(=O)Cc1csc(NC(=O)CN2C(=O)c3ccccc3C2=O)n1` is 1.6-fold higher in solubility kinetic: 34.6 µg/mL (≈ 97.6 µM) for the first, 54.3 µg/mL (≈ 145 µM) for the second.

`Cc1ccc(C)c(S(=O)(=O)c2c(C)cc(C)[nH]c2=O)c1` and `Cc1cc2oc(=O)sc2cc1NS(=O)(=O)c1ccccc1` are within 1.5-fold of each other in solubility kinetic: 28.9 µg/mL (≈ 99.2 µM) for the first, 42.8 µg/mL (≈ 133 µM) for the second.

First: Cc1cc(C)c2cc(C(=O)N3CCC(N4CCCCC4)CC3)[nH]c2c1
Second: O=C(c1c(Cl)cccc1Cl)N1CCN(c2cccc3[nH]ccc23)CC1
The solubility kinetic of the first is higher: > 50.9 µg/mL for the first, 4.8 µg/mL (≈ 12.8 µM) for the second.

Going from `CCOC(=O)c1[nH]c(C=O)c(C(=O)OCC)c1C` to `CCOC(=O)C(=CNc1cc(C)ccc1-n1cccc1)C(=O)OCC`, the solubility kinetic falls from 20.7 µg/mL (≈ 81.7 µM) to 0.7 µg/mL (≈ 2.04 µM) (30-fold).

Going from `Cc1cccc(N2C(=O)CC(SC(N)=Nc3ccccc3)C2=O)c1` (configuration not stated) to `Cc1ccc(O)c(Nc2c3ccccc3nc3ccccc23)c1`, the solubility kinetic falls from 3 µg/mL (≈ 8.84 µM) to 1.5 µg/mL (≈ 4.99 µM) (2-fold).

First: CC1CC(C)(C)NC(=S)N1CCC(=O)N1CCc2ccccc2C1 (configuration not stated)
Second: CC1CC(C)(C)CC2(C1)NC(=O)N(CC(=O)N1CCN(S(=O)(=O)c3cccc(F)c3)CC1)C2=O (configuration not stated)
The solubility kinetic of the first is 7.9-fold higher: 38.8 µg/mL (≈ 112 µM) for the first, 4.9 µg/mL (≈ 9.91 µM) for the second.

First: O=C(Nc1ccc2c(c1)CCC2)Nc1ccc(F)cc1F
Second: COc1ccc(C)cc1NC(=O)NCc1ccccc1F
The solubility kinetic of the first is lower: < 0.3 µg/mL for the first, 2 µg/mL (≈ 6.94 µM) for the second.

`CNC(=S)Nc1ccc2nc(C)oc2c1` and `CCNC(=S)Nc1ccc(-c2nc3ccccc3[nH]2)cc1` cannot be ordered by solubility kinetic: > 33.2 µg/mL for the first, > 44.5 µg/mL for the second.

Going from `CC(=O)Nc1ccc(Nc2cc(C)nc3ccccc23)cc1` to `Cc1cc(C(=O)OCC(=O)Nc2nccs2)c2ccccc2n1`, the solubility kinetic falls from 40.2 µg/mL (≈ 138 µM) to 6.8 µg/mL (≈ 20.8 µM) (5.9-fold).

Compared with `COC(=O)c1sccc1NC(=O)CSCCc1ccncc1`, `O=C(CCCc1ccccc1)Nc1cccc([N+](=O)[O-])c1` is 1.9-fold lower in solubility kinetic: 49.6 µg/mL (≈ 147 µM) for the first, 26.4 µg/mL (≈ 92.9 µM) for the second.

First: COc1ccc(-n2c(C)nc(N)c2C(=O)c2ccccc2)cc1
Second: CCOC(=O)c1c(-c2ccc(OC)cc2)cn2ccccc12
The solubility kinetic of the first is higher: 19.8 µg/mL (≈ 64.4 µM) for the first, < 0.6 µg/mL for the second.

First: O=C(COC(=O)CCC1CCCC1)Nc1ccc(F)cc1
Second: O=C(CCCCl)NC(=S)Nc1ccc(N2CCOCC2)cc1
The solubility kinetic of the first is 1.9-fold lower: 5.9 µg/mL (≈ 20.1 µM) for the first, 11.4 µg/mL (≈ 33.3 µM) for the second.

Compared with `CC(=O)Nc1cccc(C(=O)OCC(=O)Nc2ccc(Cl)cn2)c1`, `COc1ccc(CC(=O)Nc2ccc(OC(C)=O)cc2C(=O)O)cc1` is higher in solubility kinetic: 6.9 µg/mL (≈ 19.8 µM) for the first, > 51.5 µg/mL for the second.

`O=C1c2ccccc2NC(c2ccccc2)N1CCCN1CCOCC1` (configuration not stated) and `O=C(c1ccccc1Oc1ccc([N+](=O)[O-])cc1)N1CCOCC1` cannot be ordered by solubility kinetic: > 52.7 µg/mL for the first, > 49.2 µg/mL for the second.

`COc1ccc(N2CCN(CC(=O)NC(=O)NC(C)(C)C)CC2)cc1` and `CCN1CCN(C(=O)CSc2ccc(C)cc2)CC1` are within 1.5-fold of each other in solubility kinetic: 51.3 µg/mL (≈ 147 µM) for the first, 41.2 µg/mL (≈ 148 µM) for the second.

Going from `Nc1nc2c(s1)COc1ccccc1-2` to `Cc1ccc(-c2nc3ccccc3[nH]2)cn1`, the solubility kinetic falls from > 30.6 µg/mL to 29.5 µg/mL (≈ 141 µM).

First: COc1nc(OC)nc(N2CCC(C(=O)NC3CC3)CC2)n1
Second: CCNC(=S)N1CCC(C(=O)c2ccc(Cl)cc2)CC1
The solubility kinetic of the first is lower: 37 µg/mL (≈ 120 µM) for the first, > 46.6 µg/mL for the second.

Compared with `N#Cc1ccc(COC(=O)c2cnc3ccccc3n2)cc1`, `Cc1csc(NC(=O)c2ccc3ccccc3n2)n1` is 1.5-fold lower in solubility kinetic: 6.1 µg/mL (≈ 21.1 µM) for the first, 4 µg/mL (≈ 14.9 µM) for the second.

Compared with `COc1ccc(Nc2ncc(C#N)c(N)n2)c(OC)c1`, `COc1cc2nc(CCc3ccccc3)oc(=O)c2cc1OC` is higher in solubility kinetic: 6.6 µg/mL (≈ 24.3 µM) for the first, > 46.7 µg/mL for the second.

`CC(C(=O)c1c[nH]c2ccccc12)N1CCOCC1` (configuration not stated) and `O=C(Cc1ccc(F)cc1)N1CCOCC1` cannot be ordered by solubility kinetic: > 38.7 µg/mL for the first, > 33.5 µg/mL for the second.

First: Cc1cccc(Nc2nnc(SC3CCOC3=O)s2)c1C (configuration not stated)
Second: Cc1cnc(NC(=O)c2ccc3c(c2)OCCO3)s1
The solubility kinetic of the first is higher: > 48.2 µg/mL for the first, 4.4 µg/mL (≈ 15.9 µM) for the second.

First: C=CCOC(=O)C1=C(C)NC(C)=C(C(=O)OCC=C)C1c1ccco1
Second: COc1ccc(CC(=O)OCC(=O)NCc2ccc(C)cc2)cc1OC
The solubility kinetic of the first is lower: 4.5 µg/mL (≈ 13.1 µM) for the first, > 53.6 µg/mL for the second.

Compared with `Cc1onc(C(=O)NCCc2ccccc2)c1[N+](=O)[O-]`, `O=S(=O)(NCCc1ccccc1)c1ccc(F)cc1` is lower in solubility kinetic: > 41.3 µg/mL for the first, 40.9 µg/mL (≈ 146 µM) for the second.

Compared with `COc1ccc2cc(CCNC(=O)CCc3ccccc3)c(=O)[nH]c2c1`, `CC(=O)C1=C(O)C(=O)N(Cc2ccccc2)C1c1ccc(N(C)C)cc1` (configuration not stated) is 11-fold higher in solubility kinetic: 4.8 µg/mL (≈ 13.7 µM) for the first, 51.6 µg/mL (≈ 147 µM) for the second.

Compared with `COc1cccc(N/C=C/C(=O)c2ccc(C)cc2)c1`, `Cc1ccc(C(=O)C[n+]2cccc(C(N)=O)c2)cc1.[Br-]` is higher in solubility kinetic: 2.4 µg/mL (≈ 8.98 µM) for the first, > 50.3 µg/mL for the second.

Compared with `Cc1cc(C(=O)Nc2ccccc2)oc(=O)c1`, `O=C(NC1CC1)c1cc(Cl)nc2ccccc12` is higher in solubility kinetic: 25.9 µg/mL (≈ 113 µM) for the first, > 37 µg/mL for the second.

Going from `Cc1c(C(=O)C(=O)NCC2CCCO2)c2ccccc2n1C` (configuration not stated) to `CN(C)C(=O)c1cc(C(=O)c2ccccc2Br)c[nH]1`, the solubility kinetic falls from > 45.1 µg/mL to 44.4 µg/mL (≈ 138 µM).

Compared with `COC(=O)Cc1c(O)ccn(CCc2ccc(OC)c(OC)c2)c1=O`, `COc1ccc(CCNC(=O)Nc2cccc([N+](=O)[O-])c2)cc1OC` is lower in solubility kinetic: > 52.1 µg/mL for the first, 39.8 µg/mL (≈ 115 µM) for the second.

First: COc1ccccc1P(=O)(c1ccccc1)c1ccccc1NC(C)=O (configuration not stated)
Second: O=C1Nc2ccccc2N=C(c2ccccc2)c2ccccc21
The solubility kinetic of the first is higher: > 54.8 µg/mL for the first, 0.9 µg/mL (≈ 3.02 µM) for the second.

Compared with `CC1CN(C(=O)COC(=O)c2ccc(F)cc2Cl)CC(C)O1` (configuration not stated), `O=C(COC(=O)c1ccccc1F)NCc1ccc2c(c1)OCO2` is 2.4-fold lower in solubility kinetic: 43.1 µg/mL (≈ 131 µM) for the first, 18.1 µg/mL (≈ 54.6 µM) for the second.

First: CC1(C)CC(NC2C3CC4CC(C3)CC2C4)CC(C)(C)N1.Cl (configuration not stated)
Second: Cc1cccnc1NC1CCCCC1
The solubility kinetic of the first is higher: > 54.5 µg/mL for the first, 8.1 µg/mL (≈ 42.6 µM) for the second.

Going from `O=c1[nH]cc(COCC(F)CCl)c(=O)[nH]1` (configuration not stated) to `O=C(OCC(=O)c1ccc[nH]1)c1ccc(Br)cc1`, the solubility kinetic falls from > 35.5 µg/mL to 7.2 µg/mL (≈ 23.4 µM).

Compared with `CC(C)(C)S(=O)(=O)Cc1nc(-c2ccc(Cl)c(Cl)c2)cs1`, `Cc1ccc(Br)cc1S(=O)(=O)Nc1cccnc1` is higher in solubility kinetic: < 0.8 µg/mL for the first, > 49.1 µg/mL for the second.

`OCCNc1nc(-c2ccccc2)nc2c1oc1ccccc12` and `CC(=O)NC(c1ccc(C)cc1)c1cc(Cl)c2cccnc2c1O` (configuration not stated) cannot be ordered by solubility kinetic: 0.3 µg/mL (≈ 0.983 µM) for the first, < 0.4 µg/mL for the second.

Compared with `O=C(O)c1ccc(N=Cc2nc(-c3ccco3)oc2O)cc1`, `Cc1cc(C(=O)NCc2ccc3c(c2)OCO3)ccc1[N+](=O)[O-]` is lower in solubility kinetic: > 44.7 µg/mL for the first, 38.7 µg/mL (≈ 123 µM) for the second.

Going from `CCOc1ccc(NC(=S)NCc2ccc3[nH]c(C)cc3c2)cc1` to `COc1ccc(-n2ncc3c(=O)n(CC(C)=O)cnc32)cc1`, the solubility kinetic rises from 11.4 µg/mL (≈ 33.6 µM) to > 44.7 µg/mL.

`Cc1ccc(-c2ccc(C#N)c(=O)n2CC(=O)N(C)C)cc1` and `Cc1ccc(C(=O)N2C(=O)c3cccc(N)c3C2=O)o1` are within 1.5-fold of each other in solubility kinetic: 3.3 µg/mL (≈ 11.2 µM) for the first, 3.9 µg/mL (≈ 14.4 µM) for the second.

First: O=C(COc1ccc2ccccc2c1Br)N1CCCC1
Second: CC(CN1CCCC1)OC(=O)c1ccccc1Cl.Cl (configuration not stated)
The solubility kinetic of the first is lower: 45.4 µg/mL (≈ 136 µM) for the first, > 45.6 µg/mL for the second.

First: CCCCCCCCNC(CO)(CO)CO
Second: Cc1cccc(NC(=O)CCN2CCCCC2)c1.Cl
The solubility kinetic of the first is lower: 29.5 µg/mL (≈ 126 µM) for the first, > 42.4 µg/mL for the second.

Compared with `CCOc1ccc(S(=O)(=O)NC2CCCC2)cc1C`, `COc1ccc(C2CC(=O)NC(=O)C2)cc1` is lower in solubility kinetic: > 42.5 µg/mL for the first, 22.3 µg/mL (≈ 102 µM) for the second.

Going from `O=C1c2cc([N+](=O)[O-])ccc2-c2ncccc21` to `Cc1ccccc1N=C(NO)c1cccnc1`, the solubility kinetic rises from 7.4 µg/mL (≈ 32.7 µM) to > 34.1 µg/mL.

Compound `COc1cc2c(cc1OC)C(c1cccc(Cl)c1)CC(=O)N2` (configuration not stated) has a solubility kinetic of 38 µg/mL (≈ 120 µM).
